From US9162979B2, “1,5-Diary1-2-alkylpyrrole-3-substituted nitro esters, selective COX-2 inhibitors and nitric oxide donors” (ROTTAPHARM BIOTECH S.R.L., priority 2010, dated 2015) come the findings set out here.

The target in test [1] is COX-2 (Mus musculus (Mouse), UniProt Q05769). Nature of the test: Evaluation of COX-2 activity: PGE2 production in LPS-stimulated J774 cells. Type of test: cell-based, murine. The conditions noted are these: J774 cells stimulated 24 hours with LPS 10 μg/mL; PGE2 by radio-immunological assay; read-out: Cyclooxygenase inhibition COX-2 IC50. On the procedure: The murine monocyte/macrophage cell line J774 is grown in Dulbecco's modified Eagle's medium (DMEM), enriched with glutamine (2 mM), HEPES (25 mM), penicillin (100 u/mL), streptomycin (100 μg/mL), 10% of fetal bovine serum (FBS) and 1.2% of sodium pyruvate. […] Just before the experiments, the culture medium is replaced with fresh medium without FBS to avoid interference during the radio-immunological phase and the cells are stimulated as described below.
Sequence of COX-2 (Q05769 18-604): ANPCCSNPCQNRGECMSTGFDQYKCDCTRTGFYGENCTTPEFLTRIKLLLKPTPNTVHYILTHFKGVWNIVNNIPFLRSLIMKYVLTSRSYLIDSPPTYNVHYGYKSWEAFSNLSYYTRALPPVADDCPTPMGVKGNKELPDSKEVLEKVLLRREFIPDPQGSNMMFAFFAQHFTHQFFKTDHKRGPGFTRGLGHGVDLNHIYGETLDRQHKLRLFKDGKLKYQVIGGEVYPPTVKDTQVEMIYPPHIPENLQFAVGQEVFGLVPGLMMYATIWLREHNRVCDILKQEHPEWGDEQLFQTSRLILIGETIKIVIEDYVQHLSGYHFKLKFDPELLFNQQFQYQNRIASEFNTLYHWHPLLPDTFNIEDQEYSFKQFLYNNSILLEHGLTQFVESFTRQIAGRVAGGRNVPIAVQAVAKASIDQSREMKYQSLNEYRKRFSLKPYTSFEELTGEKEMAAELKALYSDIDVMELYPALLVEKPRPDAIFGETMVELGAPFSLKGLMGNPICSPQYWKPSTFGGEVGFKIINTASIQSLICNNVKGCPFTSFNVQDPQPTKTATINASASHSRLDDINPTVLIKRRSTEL
The supernatants are collected for evaluating, by means of radio-immunological assays, the amount of PGE2 produced.
In each group of experiments, wells were used in triplicate for the different treatment conditions. […] The data were evaluated using the sigmoidal dose-response equation (variable slope) (GraphPad software). IC50 and the 95% precision intervals were calculated with the program GraphPad Instat (GraphPad software).

Test [2] concerns isolated rings of thoracic aorta. Nature of the test: Evaluation of release of NO: vasorelaxing activity on endothelium-denuded aortic rings contracted with KCl. The conditions noted are these: Rattus norvegicus; for IC50: concentration reducing contractile tone induced by 20 mM KCl by half, read-out: NO release properties pIC50 (vasorelaxing potency) (converted); for Emax: relative to contractile tone induced by 20 mM KCl, 1 nM-10 μM, read-out: NO release properties Emax (maximum vasorelaxing effect). The arrangement: species or system rat. The method, then:
The activity of the compounds was evaluated on isolated rings of thoracic aorta of normotensive male Wistar rats (250-350 g). After light anaesthesia with ether, the rats were sacrificed by cervical dislocation and exsanguination. The aortas were immediately excised, extraneous tissues were removed and the endothelial layer was removed by gently rubbing the surface with a hypodermic needle. Rings of aorta with a width of 5 mm were suspended, with a preload of 2 g, in 20-ml organ baths, containing a solution of “Tyrode” (composition of the saline solution in mM: NaCl 136.8; KCl 2.95; CaCl2 1.80; MgSO4 1.05; NaH2PO4 0.41; NaHCO3 11.9; glucose 5.5), thermostatically controlled at 37° C. and kept in an atmosphere of O2 (95%) and CO2 (5%). […] were recorded by means of an isometric transducer (FTO3 Erba), connected to a microdynamometer (Buxco Electronics).
60 minutes after preparation, removal of the endothelium was confirmed by acetylcholine (ACH) (10 μM) treatment of the vascular rings pre-contracted with KCl (20 mM). Relaxation of less than 10% of the contraction induced by KCl was considered as representative of acceptable removal of the endothelial layer, whereas organs displaying relaxation ≧10% were discarded. 40 minutes after confirmation of complete removal of the endothelium, the aortas were contracted by treatment with a single dose of KCl (20 mM) and after the contraction reached a stable plateau, increasing cumulative concentrations (with progressive increments of 3 times) of the test compounds (1 nM-10 μM) were added. It was found from preliminary experiments that the contraction induced by KCl (20 mM) remained stable in a tonic state for at least 40 minutes. The same experiments were performed in the presence of a well-known inhibitor of guanylate cyclase: ODQ 1 μM, which was incubated in aorta preparations after confirmation of removal of the endothelium.
Analysis of the results. The vasorelaxing activity was evaluated as a percentage (%) relative to the contractile tone induced by 20 mM KCl. The pharmacodynamic efficacy parameter (Emax) corresponds to the maximum vasorelaxing effect induced by the molecule tested, expressed as percentage relative to the contractile tone induced by 20 mM KCl. When the limit concentration of 10 μM (the highest concentration administered) of the test compounds has not reached the maximum effect, the efficacy parameter (Emax) corresponds to the vasorelaxing effect induced by the limit concentration (expressed as percentage relative to the contractile tone induced by 20 mM KCl). The pharmacodynamic parameter of potency of the compounds was expressed as pIC50 calculated as the negative logarithm of the molar concentration of test compound that reduces the contractile tone induced by 20 mM KCl by half. […] The parameters of efficacy and potency were expressed as mean±standard error, for 5-10 experiments. The experimental data were analysed by the program GraphPad Prism 3.0.

With `CSc1ccc(-n2c(-c3ccc(S(C)(=O)=O)cc3)cc(CC(=O)OCCO)c2C)cc1` [Example 5-II, 2-Hydroxyethyl-[1-(4-methylthiophenyl)-2-methyl-5-(4-methylsulphonylphenyl)-1H-pyrrol-3-yl]-acetate], the IC50 in test [1] amounted to 0.085 µM. The same measure, in the same setting: in the case of `CSc1ccc(-n2c(-c3ccc(S(C)(=O)=O)cc3)cc(CC(=O)OCCCO)c2C)cc1` [Example 10-II, 3-(Hydroxy)propyl-[1-(4-methylthiophenyl)-2-methyl-5-(4-methylsulphonylphenyl)-1H-pyrrol-3-yl]-acetate] it was 0.26 µM; in that of `Cc1c(CC(=O)OCCCCO)cc(-c2ccc(S(C)(=O)=O)cc2)n1-c1cccc(F)c1` [Example 12-II, 4-(hydroxy)butyl-[1-(3-fluorophenyl)-2-methyl-5-(4-methylsulphonylphenyl)-1H-pyrrol-3-yl]-acetate], 0.11 µM; in that of `CSc1ccc(-n2c(-c3ccc(S(C)(=O)=O)cc3)cc(CC(=O)OCCCCO)c2C)cc1` [Example 14-II, 4-(Hydroxy)butyl-2-[1-(4-thiomethylphenyl)-2-methyl-5-(4-methylsulphonylphenyl)-1H-pyrrol-3-yl]acetate], 0.055 µM. `Cc1c(CC(=O)OCC(CO[N+](=O)[O-])O[N+](=O)[O-])cc(-c2ccc(S(C)(=O)=O)cc2)n1-c1ccccc1` (racemic) [Example 15, (R,S)-2,3-bis(Nitrooxy)propyl-2-[1-phenyl-2-methyl-5-(4-methylsulphonylphenyl)-1H-pyrrol-3-yl]acetate]: in test [2], the IC50 is 1.12 µM and the Emax worked out at 57 ± 6%. With `Cc1c(CC(=O)NC(CCO)C(=O)O)cc(-c2ccc(S(C)(=O)=O)cc2)n1-c1ccc(F)cc1` (racemic) [Example 32-II, (R,S)-4-(Hydroxy)-2-[[1-(4-fluorophenyl)-2-methyl-5-(4-methylsulphonylphenyl)-1H-pyrrol-3-yl]acetamido]butanoic Acid], the IC50 in test [1] was 0.086 µM. Same read-out and setting: in the case of `Cc1c(CC(=O)NC(CO)C(=O)O)cc(-c2ccc(S(C)(=O)=O)cc2)n1-c1cccc(F)c1` (stereo in doubt) [Example 30-II, (S)-3-(Hydroxy)-2-[1-(3-fluorophenyl)-2-methyl-5-(4-methylsulphonylphenyl)-1H-pyrrol-3-yl]acetamido]propanoic Acid] it was 0.057 µM; in that of `Cc1c(CC(=O)NC(CO)C(=O)O)cc(-c2ccc(S(C)(=O)=O)cc2)n1-c1ccc(F)cc1` (stereo in doubt) [Example 29-II, (S)-3-(Hydroxy)-2-[[1-(4-fluorophenyl)-2-methyl-5-(4-methylsulphonylphenyl)-1H-pyrrol-3-yl]acetamido]propanoic Acid], 0.16 µM; in that of `Cc1c(CC(=O)OCCO)cc(-c2ccc(S(C)(=O)=O)cc2)n1-c1ccccc1` [Example 1-II], 0.027 µM. On the same count and under the same terms, in the case of `Cc1c(CC(=O)OCCCO)cc(-c2ccc(S(C)(=O)=O)cc2)n1-c1cccc(F)c1` [Example 8-II, 3-Hydroxypropyl-[1-(3-fluorophenyl)-2-methyl-5-(4-methylsulphonylphenyl)-1H-pyrrol-3-yl]-acetate] it was 0.023 µM.

For the compound `CSc1ccc(-n2c(-c3ccc(S(C)(=O)=O)cc3)cc(CC(=O)OCCO[N+](=O)[O-])c2C)cc1` [Example 5, 2-(Nitroxy)ethyl-[1-(4-methylthiophenyl)-2-methyl-5-(4-methylsulphonylphenyl)-1H-pyrrol-3-yl]-acetate], in test [2], the IC50 was 0.457 µM and the Emax is 64.9 ± 1.4%. Turning to `COc1ccc(-n2c(-c3ccc(S(C)(=O)=O)cc3)cc(CC(=O)OCCCO)c2C)cc1` [Example 9-II, 3-Hydroxypropyl-[1-(4-methoxyphenyl)-2-methyl-5-(4-methylsulphonylphenyl)-1H-pyrrol-3-yl]-acetate], the IC50 in test [1] was determined as 0.7 µM.

For `Cc1c(CC(=O)NC(CCO[N+](=O)[O-])C(=O)O)cc(-c2ccc(S(C)(=O)=O)cc2)n1-c1cccc(F)c1` (racemic) [Example 33, (R,S)-4-(Nitroxy)-2-[[1-(3-fluorophenyl)-2-methyl-5-(4-methylsulphonylphenyl)-1H-pyrrol-3-yl]acetamido]butanoic Acid], in test [2], the Emax was 23 ± 2%.
